Measured values taken from US20100093723A1, “HETEROCYCLYL AND CYCLOALKYL SUBSTITUTED THIENO[2,3 d]PYRIMIDINE AND THEIR USE AS ADENOSINE A2a RECEPTOR ANTAGONISTS” (priority 2008, published 2010).

What was measured:
[1] = target: T1, human A2a adenosine receptor (Homo sapiens, UniProt P29274); experiment: Ligand Binding Assay for Adenosine A2a Receptor (A2A-B); conditions: plasma membrane of HEK293 cells, radioligand [3H]CGS21680; read-out: A2A-B_v3 Ki
T1 construct: purchased PerkinElmer RB-HA2a; host or cells: HEK293 cell plasma membranes
Experimental: Ligand Binding Assay for Adenosine A2a Receptor (A2A-B)
Ligand binding assay of adenosine A2a receptor was performed using plasma membrane of HEK293 cells containing human A2a adenosine receptor (PerkinElmer, RB-HA2a) and radioligand [^3H]CGS21680 (PerkinElmer, NET1021). Assay was set up in 96-well polypropylene plate in total volume of 200 μL by sequentially adding 20 μL 1:20 diluted membrane, 130 μL assay buffer (50 mM Tris.HCl, pH7.4 10 mM MgCl2, 1 mM EDTA) containing [^3H] CGS21680, 50 μL diluted compound (4×) or vehicle control in assay buffer. Nonspecific binding was determined by […] NECA. Reaction was carried out at room temperature for 2 hours before filtering through 96-well GF/C filter plate pre-soaked in 50 mM Tris.HCl, pH7.4 containing 0.3% polyethylenimine. Plates were then washed 5 times with cold 50 mM Tris.HCl, pH7.4, dried and sealed at the bottom. Microscintillation fluid 30 μL was added to each well and the top sealed. Plates were counted on Packard Topcount for [^3H]. Data was analyzed in Microsoft Excel and GraphPad Prism programs. (Varani, K.; Gessi, S.; Dalpiaz, A.; Borea, P. A. British Journal of Pharmacology, 1996, 117, 1693)

[2] = target: T2, human adenosine A2a receptor (Homo sapiens, UniProt P29274); experiment: Adenosine A2a Receptor Functional Assay (A2AGAL2); type: cell-based; conditions: CHO-K1 cells overexpressing human A2a receptor, cAMP inducible beta-galactosidase reporter, 15 nM NECA agonist challenge; read-out: A2AGAL2_v4 Ki
T2 construct: expressed in transfected cells; host or cells: CHO-K1
Experimental: Adenosine A2a Receptor Functional Assay (A2AGAL2)
(§1) To initiate the functional assay, cryopreserved CHO-K1 cells overexpressing the human adenosine A2a receptor and containing a cAMP inducible beta-galactosidase reporter gene were thawed, centrifuged, DMSO containing media removed, and then seeded with fresh culture media into clear 384-well tissue culture treated plates (BD #353961) at a concentration of 10K cells/well. Prior to assay, these plates were cultured for two days at 37° C., 5% CO2, 90% Rh. On the day of the functional assay, culture media was removed and replaced with 45 uL assay medium (Hams/F-12 Modified (Mediatech # 10-080CV) supplemented w/0.1% BSA). Test compounds were diluted and 11 point curves created at a 1000× concentration in 100% DMSO. Immediately after addition of assay media to the cell plates, 50 nL of the appropriate test compound antagonist or agonist control curves were added to cell plates using a Cartesian Hummingbird. Compound curves were allowed to incubate at room temperature on cell plates for approximately 15 minutes before addition of a 15 nM NECA (Sigma E2387) agonist challenge (5 uL volume). A control curve of NECA, a DMSO/Media control, and a single dose of Forskolin (Sigma F3917) were also included on each plate. After additions, cell plates were allowed to incubate at 37° C., 5% CO2, 90% Rh for 5.5-6 hours. After incubation, media was removed, and cell plates were washed 1×50 uL with DPBS w/o Ca & Mg (Mediatech 21-031-CV). Into dry wells, 20 uL of 1× Reporter Lysis Buffer (Promega E3971 (diluted in dH2O from 5× stock)) was added to each well and plates frozen at −20° C. overnight. For β-galactosidase enzyme colorimetric assay, plates were thawed out at room temperature and 20 μL 2× assay buffer (Promega) was added to each well. Color was allowed to develop at 37° C., 5% CO2, 90% Rh for 1-1.5 h or until reasonable signal appeared. The colorimetric reaction was stopped with the addition of 60 μL/well 1M sodium carbonate. Plates were counted at 405 nm on a SpectraMax Microplate Reader (Molecular Devices). Data was analyzed in Microsoft Excel and IC/EC50 curves were fit using a standardized macro.

[3] = target: T3, human adenosine A1 receptor (Homo sapiens, UniProt P30542); experiment: Adenosine A1 Receptor Functional Assay (A1GAL2); type: cell-based; conditions: CHO-K1 cells overexpressing human A1 receptor, cAMP inducible beta-galactosidase reporter, 4 nM r-PIA/1 uM Forskolin agonist challenge; read-out: A1GAL2_v3 Ki
T3 construct: expressed in transfected cells; host or cells: CHO-K1
T3 sequence (P30542 1-326): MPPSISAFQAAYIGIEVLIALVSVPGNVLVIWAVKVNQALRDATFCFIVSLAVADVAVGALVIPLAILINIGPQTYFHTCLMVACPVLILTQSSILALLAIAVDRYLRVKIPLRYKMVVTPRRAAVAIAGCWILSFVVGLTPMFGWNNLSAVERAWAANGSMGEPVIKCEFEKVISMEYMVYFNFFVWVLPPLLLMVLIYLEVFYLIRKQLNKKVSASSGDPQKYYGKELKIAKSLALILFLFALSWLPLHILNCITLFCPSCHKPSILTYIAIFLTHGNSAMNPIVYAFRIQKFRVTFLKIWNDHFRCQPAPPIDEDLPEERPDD
Experimental: Adenosine A1 Receptor Functional Assay (A1GAL2)
as §1, with “adenosine A1” for “adenosine A2a”, “a 4” for “a 15”, “nM r-PIA” for “nM NECA”, “(Sigma P4532)/1 uM Forskolin (Sigma F3917)” for “(Sigma E2387)”, “of r-PIA in 1 uM Forskolin,” for “of NECA,”, “Forskolin” for “Forskolin (Sigma F3917)”

T2 sequence (P29274 whole entry): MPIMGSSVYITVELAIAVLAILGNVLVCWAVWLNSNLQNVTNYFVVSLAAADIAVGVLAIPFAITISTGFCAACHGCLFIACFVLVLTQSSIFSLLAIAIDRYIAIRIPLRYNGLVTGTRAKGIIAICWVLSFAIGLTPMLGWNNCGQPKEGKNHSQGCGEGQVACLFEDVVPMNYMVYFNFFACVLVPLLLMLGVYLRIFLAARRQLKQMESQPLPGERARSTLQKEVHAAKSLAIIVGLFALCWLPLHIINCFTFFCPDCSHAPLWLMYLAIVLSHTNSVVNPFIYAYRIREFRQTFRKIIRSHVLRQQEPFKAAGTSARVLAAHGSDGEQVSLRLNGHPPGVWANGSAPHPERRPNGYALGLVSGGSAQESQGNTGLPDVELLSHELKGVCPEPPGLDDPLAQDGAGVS
T1 sequence (P29274 whole entry): as above

Row | Ki [1] | Ki [2] | Ki [3] | SMILES
1 | 34.2 nM | 77.3 nM | 3770 nM | Cc1ccc(-c2nc(N)c3cc(CC4CCCCC4)sc3n2)o1 [Example 1, 6-Cyclohexylmethyl-2-(5-methyl-furan-2-yl)-thieno[2,3-d]pyrimidin-4-ylamine]
2 |  | > 1490 nM | > 1310 nM | CC(C)(C)c1ccc(-c2nc(N)c3cc(CCN4CCOCC4)sc3n2)s1 [Example 2, 2-(5-tert-Butyl-thiophen-2-yl)-6-(2-morpholin-4-yl-ethyl)-thieno[2,3-d]pyrimidin-4-ylamine]
3 |  | 238 nM | 18700 nM | Nc1nc(-c2ncco2)nc2sc(CCN3CCOCC3)cc12 [Example 3, 6-(2-Morpholin-4-yl-ethyl)-2-oxazol-2-yl-thieno[2,3-d]pyrimidin-4-ylamine]
4 |  | 190 nM | 2370 nM | Cc1csc(-c2nc(N)c3cc(CCN4CCOCC4)sc3n2)n1 [Example 4, 2-(4-Methyl-thiazol-2-yl)-6-(2-morpholin-4-yl-ethyl)-thieno[2,3-d]pyrimidin-4-ylamine]
5 |  | 40.1 nM | 594 nM | N#Cc1cccc(-c2nc(N)c3cc(CCN4CCOCC4)sc3n2)c1 [Example 5, 3-[4-Amino-6-(2-morpholin-4-yl-ethyl)-thieno[2,3-d]pyrimidin-2-yl]-benzonitrile]
6 |  | 29.8 nM | 317 nM | N#Cc1cccc(-c2nc(N)c3cc([C@H](O)CN4CCOCC4)sc3n2)c1 [Example 6, 3-[4-Amino-6-(1-hydroxy-2-morpholin-4-yl-ethyl)-thieno[2,3-d]pyrimidin-2-yl]-benzonitrile]
7 |  | 195 nM | 855 nM | C[C@@H]1CCC[C@H](C)N1C[C@@H](O)c1cc2c(N)nc(-c3cccc(C#N)c3)nc2s1 [Example 7, 3-{4-Amino-6-[2-(2,6-dimethyl-piperidin-1-yl)-1-hydroxy-ethyl]-thieno[2,3-d]pyrimidin-2-yl}-benzonitrile]
